From ChEMBL document CHEMBL5046241, “The novel therapeutic strategy of vilazodone-donepezil chimeras as potent triple-target ligands for the potential treatment of Alzheimer's disease with comorbid depression” (Eur J Med Chem, 2022)

What was measured:
Acetylcholinesterase = target: T1, Acetylcholinesterase (Mus musculus, UniProt P21836); experiment: biochemical
T1 sequence (P21836 whole entry): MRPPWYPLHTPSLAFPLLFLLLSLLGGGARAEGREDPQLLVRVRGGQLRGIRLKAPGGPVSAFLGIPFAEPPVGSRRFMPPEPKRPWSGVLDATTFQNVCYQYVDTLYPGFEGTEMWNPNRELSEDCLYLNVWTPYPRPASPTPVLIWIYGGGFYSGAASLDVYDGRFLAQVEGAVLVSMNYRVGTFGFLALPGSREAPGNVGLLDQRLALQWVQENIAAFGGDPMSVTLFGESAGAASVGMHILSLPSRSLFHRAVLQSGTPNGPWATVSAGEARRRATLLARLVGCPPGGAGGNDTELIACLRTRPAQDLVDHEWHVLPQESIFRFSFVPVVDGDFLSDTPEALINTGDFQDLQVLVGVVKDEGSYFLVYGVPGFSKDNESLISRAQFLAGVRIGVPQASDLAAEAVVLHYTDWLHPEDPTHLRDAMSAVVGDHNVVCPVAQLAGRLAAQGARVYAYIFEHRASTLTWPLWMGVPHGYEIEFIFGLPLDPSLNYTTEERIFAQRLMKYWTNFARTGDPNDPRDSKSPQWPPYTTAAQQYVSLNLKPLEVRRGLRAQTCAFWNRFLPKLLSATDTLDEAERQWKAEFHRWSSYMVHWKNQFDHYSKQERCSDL
Description: Inhibition of AChE in mouse cortical homogenate using acetylthiocholine iodide as substrate incubated for 20 mins by Ellman's method

[1] = target: Sodium-dependent serotonin transporter (Homo sapiens, UniProt P31645); type: cell-based, HEK293
Sodium-dependent serotonin transporter, sequence (P31645 whole entry): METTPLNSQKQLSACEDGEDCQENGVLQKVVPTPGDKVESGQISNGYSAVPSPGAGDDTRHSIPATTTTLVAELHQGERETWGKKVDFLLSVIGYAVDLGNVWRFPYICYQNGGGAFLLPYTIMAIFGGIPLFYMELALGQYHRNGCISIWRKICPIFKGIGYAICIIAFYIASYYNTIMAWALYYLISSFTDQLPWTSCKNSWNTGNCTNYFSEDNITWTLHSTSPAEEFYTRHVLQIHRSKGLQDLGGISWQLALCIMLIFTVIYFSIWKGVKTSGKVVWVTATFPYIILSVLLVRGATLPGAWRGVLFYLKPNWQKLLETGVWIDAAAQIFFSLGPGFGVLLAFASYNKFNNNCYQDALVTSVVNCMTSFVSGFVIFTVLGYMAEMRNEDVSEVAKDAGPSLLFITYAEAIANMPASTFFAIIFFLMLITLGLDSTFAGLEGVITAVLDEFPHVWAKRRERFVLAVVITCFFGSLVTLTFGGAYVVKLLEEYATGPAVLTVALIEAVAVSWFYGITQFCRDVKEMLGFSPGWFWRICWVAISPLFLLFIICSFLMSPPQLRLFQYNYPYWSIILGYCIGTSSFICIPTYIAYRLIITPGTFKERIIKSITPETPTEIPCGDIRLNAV

Cholinesterase = Cholinesterase (Mus musculus, UniProt Q03311)
Cholinesterase, sequence (Q03311 whole entry): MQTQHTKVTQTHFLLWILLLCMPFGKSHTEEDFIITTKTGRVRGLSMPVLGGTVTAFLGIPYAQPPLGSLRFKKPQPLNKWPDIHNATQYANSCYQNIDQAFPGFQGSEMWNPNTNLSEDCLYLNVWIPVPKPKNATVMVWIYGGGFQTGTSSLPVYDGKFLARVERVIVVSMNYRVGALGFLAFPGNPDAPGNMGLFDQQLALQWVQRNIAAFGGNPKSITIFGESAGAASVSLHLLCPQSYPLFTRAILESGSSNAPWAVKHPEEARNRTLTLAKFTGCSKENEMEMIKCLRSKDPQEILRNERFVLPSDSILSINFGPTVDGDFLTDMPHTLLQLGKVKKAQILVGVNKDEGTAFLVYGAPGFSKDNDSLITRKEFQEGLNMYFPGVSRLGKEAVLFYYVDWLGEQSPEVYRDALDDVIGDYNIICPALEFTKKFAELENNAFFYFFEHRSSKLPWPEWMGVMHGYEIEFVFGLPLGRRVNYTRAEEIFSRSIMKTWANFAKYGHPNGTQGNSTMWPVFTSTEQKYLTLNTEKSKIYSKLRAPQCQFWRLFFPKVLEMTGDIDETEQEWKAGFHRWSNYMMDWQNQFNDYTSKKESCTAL
Description: Inhibition of BuChE in mouse serum using butyrylthiocholine iodide as substrate incubated for 20 mins by Ellman's method

in vitro = conditions: PAMPA
Description: Permeability of compound by PAMPA-BBB assay

[2] = target: T2, 5-hydroxytryptamine receptor 1A (Homo sapiens, UniProt P08908)
T2 sequence (P08908 whole entry): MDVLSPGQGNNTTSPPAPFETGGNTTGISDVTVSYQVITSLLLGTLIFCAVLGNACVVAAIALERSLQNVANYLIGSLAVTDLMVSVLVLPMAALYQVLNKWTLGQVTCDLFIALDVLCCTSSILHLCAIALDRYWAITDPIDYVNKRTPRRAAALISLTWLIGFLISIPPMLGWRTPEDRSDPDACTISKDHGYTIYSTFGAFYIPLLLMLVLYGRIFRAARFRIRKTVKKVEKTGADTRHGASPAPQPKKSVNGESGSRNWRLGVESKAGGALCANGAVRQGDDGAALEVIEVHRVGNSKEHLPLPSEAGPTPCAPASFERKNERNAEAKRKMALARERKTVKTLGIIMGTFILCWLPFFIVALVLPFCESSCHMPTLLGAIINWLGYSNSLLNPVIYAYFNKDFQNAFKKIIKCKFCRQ
Description: Agonist activity at human 5-HT1A receptor expressed in HEK293 cells incubated for 60 mins by Eu-cAMP tracer based LANCE ultra cAMP assay

Row | SMILES | IC50 (Acetylcholinesterase) [µM] | IC50 [1] [µM] | IC50 (Cholinesterase) [µM] | Papp (in vitro) [×10⁻⁶ cm/s] | EC50 [2] [µM]
1 | N#Cc1ccc2[nH]cc(CCCCN3CCN(c4ccc5c(c4)CC(CC4CCN(Cc6ccccc6)CC4)C5=O)CC3)c2c1 (stereo not drawn) | 0.00584 | 0.036 | 1.67 | – | –
2 | N#Cc1ccc2[nH]cc(CCCCN3CCN(c4cccc(C(=O)CCC5CCN(Cc6ccccc6)CC5)c4)CC3)c2c1 | 0.0379 | – | 1 | – | –
3 | N#Cc1ccc2[nH]cc(CCCCN3CCN(c4ccc5c(c4)C(=O)C(CC4CCN(Cc6ccccc6)CC4)C5)CC3)c2c1 (stereo not drawn) | 0.0374 | – | 0.325 | – | –
4 | N#Cc1ccc2[nH]cc(CCN3CCN(c4ccc(C(=O)CCC5CCN(Cc6ccccc6)CC5)cc4)CC3)c2c1 | 0.00504 | 0.0323 | 3 | – | –
5 | N#Cc1ccc2[nH]cc(CCN3CCN(c4ccc(C(=O)CCC5CCN(Cc6cccnc6)CC5)cc4)CC3)c2c1 | 0.0077 | – | 6.75 | 2.58 | 0.547
6 | N#Cc1ccc2[nH]cc(CCCCN3CCN(c4ccc(C(=O)CCC5CCN(CC6CCCCC6)CC5)cc4)CC3)c2c1 | 0.0765 | – | 2.83 | – | –
7 | N#Cc1ccc2[nH]cc(CCCCN3CCN(c4ccc(C(=O)CCC5CCN(Cc6cccc(Cl)c6)CC5)cc4)CC3)c2c1 | 0.027 | – | 15.3 | – | 0.203
8 | N#Cc1ccc2[nH]cc(CN3CCN(c4ccc(C(=O)CCC5CCN(Cc6cccnc6)CC5)cc4)CC3)c2c1 | 0.00997 | – | 5.85 | 2.86 | > 1
9 | O=C(CCC1CCN(Cc2ccccc2)CC1)c1ccc(N2CCN(CCCCc3c[nH]c4ccccc34)CC2)cc1 | 0.00151 | 0.285 | 0.986 | – | –
10 | N#Cc1ccc2[nH]cc(CCCCN3CCN(c4cccc5c4C(=O)C(CC4CCN(Cc6ccccc6)CC4)C5)CC3)c2c1 (stereo not drawn) | 0.709 | – | 0.183 | – | 0.036
11 | N#Cc1ccc2[nH]cc(CCCCN3CCN(c4ccc(C(=O)CCC5CCN(CC6CCC6)CC5)cc4)CC3)c2c1 | 0.249 | – | 1.32 | – | –
12 | N#Cc1ccc2[nH]cc(CCN3CCN(c4ccc(C(=O)CCC5CCN(Cc6ccoc6)CC5)cc4)CC3)c2c1 | 0.0123 | – | 2.84 | – | –
13 | Cc1cccc(CN2CCC(CCC(=O)c3ccc(N4CCN(CCCCc5c[nH]c6ccc(C#N)cc56)CC4)cc3)CC2)c1 | 0.0183 | – | 13.4 | – | –
14 | CCN1CCC(CCC(=O)c2ccc(N3CCN(CCCCc4c[nH]c5ccc(C#N)cc45)CC3)cc2)CC1 | 0.393 | – | 2.38 | – | 0.009
15 | N#Cc1ccc2[nH]cc(CN3CCN(c4ccc(C(=O)CCC5CCN(Cc6ccoc6)CC5)cc4)CC3)c2c1 | 0.0106 | – | 1.4 | 5.56 | > 1
16 | COc1ccc2[nH]cc(CCCCN3CCN(c4ccc(C(=O)CCC5CCN(Cc6ccccc6)CC5)cc4)CC3)c2c1 | 0.00242 | 0.0765 | 0.687 | – | –
17 | N#Cc1ccc2[nH]cc(CCCCN3CCN(c4ccc(C(=O)CCC5CCN(Cc6cccc(Br)c6)CC5)cc4)CC3)c2c1 | 0.0915 | – | – | – | –
18 | N#Cc1ccc2[nH]cc(CCCCN3CCN(c4ccc(C(=O)CCC5CCN(Cc6ccc7ccccc7c6)CC5)cc4)CC3)c2c1 | – | – | – | – | > 1
19 | C#CCN1CCC(CCC(=O)c2ccc(N3CCN(CCCCc4c[nH]c5ccc(C#N)cc45)CC3)cc2)CC1 | 1.14 | – | – | – | 0.029
20 | O=C(CCC1CCN(Cc2ccccc2)CC1)c1ccc(N2CCN(CCCCc3c[nH]c4ccc(Br)cc34)CC2)cc1 | 0.00775 | – | 3.84 | – | –
21 | N#Cc1ccc2[nH]cc(CCCN3CCN(c4ccc(C(=O)CCC5CCN(Cc6cccnc6)CC5)cc4)CC3)c2c1 | 0.00641 | – | 2.01 | – | –

Row | SMILES | IC50 (Acetylcholinesterase) [µM] | IC50 [1] [µM] | IC50 (Cholinesterase) [µM] | Papp (in vitro) [×10⁻⁶ cm/s] | EC50 [2] [µM]
22 | N#Cc1ccc2[nH]cc(CCCN3CCN(c4ccc(C(=O)CCC5CCN(Cc6ccsc6)CC5)cc4)CC3)c2c1 | 0.00185 | 0.0411 | 1.2 | – | –
23 | N#Cc1ccc2[nH]cc(CCCCN3CCN(c4ccc(C(=O)CCC5CCN(Cc6cccc(C(F)(F)F)c6)CC5)cc4)CC3)c2c1 | 0.294 | – | – | – | 0.323
24 | COC(=O)c1ccc2[nH]cc(CCCCN3CCN(c4ccc(C(=O)CCC5CCN(Cc6ccccc6)CC5)cc4)CC3)c2c1 | 0.00328 | > 1 | 0.336 | – | –
25 | CCCCN1CCC(CCC(=O)c2ccc(N3CCN(CCCCc4c[nH]c5ccc(C#N)cc45)CC3)cc2)CC1 | 0.123 | – | 1.91 | – | –
26 | C=CCN1CCC(CCC(=O)c2ccc(N3CCN(CCCCc4c[nH]c5ccc(C#N)cc45)CC3)cc2)CC1 | 0.267 | – | 1.66 | – | 0.0086
27 | N#Cc1ccc2[nH]cc(CCCCN3CCN(c4ccccc4C(=O)CCC4CCN(Cc5ccccc5)CC4)CC3)c2c1 | 2.52 | – | 0.351 | – | –
28 | O=C(CCC1CCN(Cc2ccccc2)CC1)c1ccc(N2CCN(CCCCc3c[nH]c4ccc(F)cc34)CC2)cc1 | 0.00243 | 0.114 | 1.47 | – | –
29 | Cc1ccc2[nH]cc(CCCCN3CCN(c4ccc(C(=O)CCC5CCN(Cc6ccccc6)CC5)cc4)CC3)c2c1 | 0.00228 | > 1 | 1.2 | 2.5 | 0.279
30 | COc1cccc(CN2CCC(CCC(=O)c3ccc(N4CCN(CCCCc5c[nH]c6ccc(C#N)cc56)CC4)cc3)CC2)c1 | 0.644 | – | – | – | –
31 | N#Cc1ccc2[nH]cc(CCCCN3CCN(c4ccc(C(=O)CCC5CCN(CC6CCCC6)CC5)cc4)CC3)c2c1 | 0.0404 | – | 1.76 | – | 0.0498
32 | N#Cc1ccc2[nH]cc(CCCCN3CCN(c4ccc(C(=O)CCC5CCN(Cc6ccc(F)cc6)CC5)cc4)CC3)c2c1 | 0.0324 | – | 2.68 | – | 0.162
33 | N#Cc1ccc2[nH]cc(CCCCN3CCN(c4ccc(C(=O)CCC5CCN(CC6CC6)CC5)cc4)CC3)c2c1 | 0.366 | – | 0.743 | – | 0.0091
34 | O=C(CCC1CCN(Cc2ccccc2)CC1)c1ccc(N2CCN(CCCCc3c[nH]c4ccc(Cl)cc34)CC2)cc1 | 0.00352 | 0.159 | 2.72 | – | –
35 | N#Cc1ccc2[nH]cc(CCCCN3CCN(c4ccc5c(c4)C/C(=C\C4CCN(Cc6ccccc6)CC4)C5=O)CC3)c2c1 | 0.0307 | – | 4.95 | – | –
36 | N#Cc1ccc2[nH]cc(CCCN3CCN(c4ccc(C(=O)CCC5CCN(Cc6ccoc6)CC5)cc4)CC3)c2c1 | 0.00961 | – | 1.34 | 5.17 | 0.029
37 | N#Cc1ccc2[nH]cc(CCCCN3CCN(c4ccc(C(=O)CCC5CCN(Cc6cccc(F)c6)CC5)cc4)CC3)c2c1 | 0.0109 | – | 11.3 | – | –
38 | N#Cc1ccc2[nH]cc(CCCCN3CCN(c4ccc(C(=O)CCC5CCN(Cc6ccccc6F)CC5)cc4)CC3)c2c1 | 0.012 | – | 2.51 | – | –
39 | O=C(CCC1CCN(Cc2ccccc2)CC1)c1ccc(N2CCN(CCCCc3c[nH]c4cc(Cl)c(Cl)cc34)CC2)cc1 | 0.0112 | – | 5.81 | – | > 1
40 | N#Cc1ccc2c(CCCCN3CCN(c4ccc(C(=O)CCC5CCN(Cc6ccccc6)CC5)cc4)CC3)c[nH]c2c1 | 0.00371 | – | 2.64 | – | > 1
41 | N#Cc1ccc2[nH]cc(CCCN3CCN(c4ccc(C(=O)CCC5CCN(Cc6cc[nH]c6)CC5)cc4)CC3)c2c1 | 0.00327 | 0.0149 | 1.13 | – | –
